Experimental data reported in patent publication US6011000A, “Compositions for the treatment of blood disorders” (priority 1995, dated 2000).
Like-named read-outs stand apart in the source and are kept apart here.

Legend:
[1] = test system: fetal globin (cultured erythroid progenitor cells); details: cited from earlier work
[2] = test system: fetal globin mRNA (human erythroleukemia cells); experiment: Fetal globin mRNA in erythroleukemia cells (primer extension); format: cell-based
Protocol: Compounds were tested for increased expression of the human globin genes in human erythroid cells. In addition, as the cell line being tested is a tumor cell line, the assay determines if differentiation, a growth inhibitory effect on cancer cells, is induced by the compounds tested. Human erythroleukemia cells were cultured in RPMI media with 10% fetal calf serum alone or with treatment with various compounds for 4 days. Globin MRNA was quantitated by primer extension analysis. Fetal globin mRNA was compared to the amount of fetal globin mRNA produced in untreated cells during the same culture period. The quantitation was expressed as a percent of alpha globin MRNA which was constant. Results are expressed proportional to α-globin mRNA (Table 3).

anemic baboon = experiment: In vivo reticulocyte proliferation, globin expression and blood counts in anemic (phlebotomized) baboons
Protocol: Experiments were performed to determine if administration of the chemical compositions could induce fetal globin gene expression in an in vivo model similar to humans (S. P. Perrine et al., Brit. J. Haematol. 88:555-61, 1994). Briefly, chemicals were prepared as sterile pharmaceutical solutions in pH adjusted sterile water. A variety of chemical compositions were administered sequentially to some baboons. After administration of one compound, a wash-out period with no compound administration was maintained until reticulocytes returned to base line prior to administration of the next compound. This was done, at least partly, to compare the magnitude of response which occurred within the same individual animal to different compounds.
Briefly, juvenile female baboons (2 years old) were catheterized with arterial and venous catheters and phlebotomized gradually every day to maintain a moderate anemia of 7.0 to 7.5 grams hemoglobin/dl. Fetal reticulocytes, the newly produced red blood cells containing fetal globin, were assayed using a monoclonal antibody against fetal globin (HbF) as described by G. Dover et al. (Blood 67:735-38, 1986). Briefly, blood was stained with two antibodies, one specific for reticulocytes and another against fetal globin protein. The amount of antibody bound cells was determined by FACS analysis. Globin chain synthesis was assayed as described by J. B. Clegg et al. (J. Mol. Biol. 19:91-108, 1966). Briefly, reticulocytes were radio-labeled with ^3 H-leucine which was incorporated in equal proportions into actively synthesized globin chains. After incubation in leucine-free media, cells were washed, and globin proteins were separated and purified by column chromatography. Radioactivity incorporated into each peak is compared and the ratios of gamma to gamma plus beta globin calculated. Each animal served as its own control with baseline monitoring assays performed for 4-6 weeks before any drug was administered. Phlebotomy was continued daily, so that peripheral HbF levels in the animals were not considered to be accurate over the short treatment time-frames and were not monitored. Safety monitoring was performed by frequent physical examinations, quantitation of food eaten, activity and frequent chemistry and hematology monitoring. Complete blood counts were assayed before, during and after treatment. Results presented were not adjusted to account for the daily phlebotomy.

[3] = test system: fetal globin (gamma globin); experiment: Fetal globin expression in erythroid progenitor cells from cord blood; format: cell-based, human; details: for Gamma/(Gamma + Beta): Exp. B, 12-13 days, untreated 25.4%, 27.5%
Protocol: Compositions were tested for activity in inducing fetal globin expression and protein production in erythroid progenitor cells cultured from human cord blood and analyzed as described by S. P. Perrine et al. (Blood 74: 454-60, 1989). Briefly, mononuclear cells were cultured in IMDM with 30% fetal calf serum and 2 units erythropoietin per ml to induce erythroid differentiation. Colonies were harvested on day 12-13, incubated with radio-labelled (^3 H) leucine, and further incubated in leucine-free media, still in the presence of compounds, overnight. Globin composition in the erythroid cells was analyzed by laser densitometry of electrophoretically separated globin chains stained with Coomassie blue, and by autoradiography. Treated cells were incubated for 12-13 days (Table 2, Experiments A and B) or overnight (Table 2, Experiment C) in the presence of the indicated compounds and compared to untreated control cells cultured from the same human subject.

fetal globin production = details: cited from earlier work
[4] = test system: proximal promoter of the gamma globin gene (K562 cells); experiment: Gamma globin promoter-neomycin transfection (61 bp proximal promoter), G418-resistant colonies; format: cell-based, human; details: 1 mM, 8 weeks in G418
Protocol: Gamma globin promoter-neomycin transfection experiments were performed to determine if compounds act by inducing an increase in activity from the proximal promoter of the gamma globin gene. Constructs containing 61 bp of the proximal gamma globin promoter were linked to the reporter gene for neomycin phosphotransferase (NEO) and transfected into permissive K562 cells by electroporation. After 18 hours, transfected cells were passed at 10^3 cells per well into RPMI media containing G418 (neomycin), which kills all mammalian cells unless the gene for NEO is expressed. Phenoxyacetic acid and thiophenoxyacetic acid were added to some of the cells plated into the RPMI/G418 media at concentrations of 1 mM. Cultures were incubated for 8 weeks with media changes performed as needed. Colonies which survived and grew in the presence of G418 were scored and the number of such colonies was compared to those generated when the cells were plated into G418 media without the test compounds. […] There was a greater than 6-fold (>600%) increase in proportions of colonies surviving the presence of phenoxyacetic acid (6/24 wells) and a three-fold (300%) increase in survival in the presence of thiophenoxyacetic acid (3/24 wells).

[5] = test system: system A transport (K562 cells and nucleated erythroblasts from fetal liver); experiment: Effects on system A amino acid transport (3H-MAIB uptake); format: cell-based, human
Protocol: Inhibition of nutrient uptake is undesirable for treatment of anemias. Methyl aminoisobutyric acid (MAIB) labeled with tritium (^3 H) is normally taken up by system A amino acid transport. Cold (unlabeled) compounds were added to cultures containing ^3 H-MAIB and incubated for 1 hour. Cells were harvested and the amount of ^3 H taken up by cells was quantitated by scintillation counting.

For `O=C(O)CCCc1ccccc1` [4-phenyl butyrate], the “fetal globin expressing reticulocyte proliferation” value [1] is listed as “decrease fetal globin expressing reticulocyte proliferation” and the “relative proportions of fetal globin per cell” value [1] is listed as “increase relative proportions of fetal globin per cell”.

In the case of `CCCC(=O)OCC(O)CO` (stereo not shown) [MB, monobutyrin], the “induction of fetal globin mRNA” value [2] is reported as “significantly increased the induction of fetal globin MRNA”, the “Gamma Globin mRNA (increase)” value ([2]; 1.0 mM, 4 days) is reported as 26% and the Gamma/Alpha ([2]; 1.0 mM, 4 days, untreated 0.46) is reported as 0.73. The “increase in fetal reticulocytes above basal levels” value (anemic baboon; 500 to 2,000 mg/kg i.v. daily, 4 days) was 220% and the Fetal reticulocytes (anemic baboon; 500 to 2,000 mg/kg i.v. daily, 4 days, from 12%) was 27%.

In the case of `CC(CO)C(N)=O` (stereo not shown) [MHPP, 2 methyl-3-hydroxypropionamide], the “Gamma/(Gamma + Beta)” value ([3]; 0.05 mM) is reported as 29.8%, the “Gamma/(Gamma + Beta)” value ([3]; 1.0 mM) is reported as 24.0% and the “expression of fetal globin” value ([3]; concentrations above 0.25 mM (FIG. 4)) is reported as “decreased the expression of fetal globin”. The fetal globin expression ([3]; concentrations below 0.25 mM) was “increased fetal globin expression”.

For `CC(=O)Oc1ccccc1` [Phenyl acetate], the “fetal globin expressing reticulocyte proliferation” value [1] is given as “decrease fetal globin expressing reticulocyte proliferation” and the “relative proportions of fetal globin per cell” value [1] is given as “increase relative proportions of fetal globin per cell”.

For `CCCC(=O)[O-].[Na+]` [sodium butyrate], the “stimulation of fetal globin production” value (fetal globin production) is given as “effective in stimulating fetal globin production”.

For `O=C(O)CSc1ccccc1` [thiophenoxyacetic acid], the “increase in proportions of colonies surviving” value [4] was “three-fold”, the colonies surviving ([4]; none of 24 wells without compound) was 3/24 and the activation at 1000 µM ([4]; Homo sapiens, K562, 1344 h, read-out: increase in proportions of colonies surviving) was 300%.

In the case of `CCCC(=O)OCC(COC(=O)CCC)OC(=O)CCC` [tributyrin], the Gamma globin expression (anemic baboon; 500 to 750 mg/kg per day i.v., 3 days, from 0%) is reported as “about 2.2 % of total non-alpha globin expression” and the Fetal reticulocytes (anemic baboon; 500 to 750 mg/kg per day i.v., 3 days, from 10%) is reported as 14%.

For `CCC(N)C(=O)O` (stereo not drawn) [α-amino-n-butyric acid], the “stimulation of fetal globin production” value (fetal globin production) is listed as “effective in stimulating fetal globin production”.

With `CC(=Cc1ccccc1)C(=O)O` [α-methyl cinnamic acid] the “system A (neutral) amino acid transport” value [5] was “do not significantly alter system A transport of amino acids”.

With `CC(Cc1ccccc1)C(=O)O` (stereo not drawn) [α-methyl hydrocinnamic acid] the “system A (neutral) amino acid transport” value ([5]; 1 hour, 3H-MAIB (FIG. 12)) was “caused no significant inhibition and actually increased uptake of nutrients into cells”, the “production of blood cell types” value (anemic baboon; baboons) was “stimulated production of many different cell types” and the “red blood cell count” value (anemic baboon; first baboon, infusion 500-1,000 mg/kg, 5 days, from 2.28) was 3.53 10^6 red blood cells per microliter. For the same compound, the “white blood cell count” value (anemic baboon; first baboon, infusion 500-1,000 mg/kg, 5 days, from 4.1) was 11.5, the “total number of reticulocytes” value (anemic baboon; first baboon, infusion 500-1,000 mg/kg, 5 days, from 5.6%) was 11% and the “total hemoglobin after treatment” value (anemic baboon; first baboon, infusion 500-1,000 mg/kg, 5 days, from 6.4) was 7.9 grams/dl. The “packed red blood cell volume” value (anemic baboon; first baboon, infusion 500-1,000 mg/kg, 5 days, from 19.5%) was 31.2 % of total blood volume, the platelet count (anemic baboon; first baboon, infusion 500-1,000 mg/kg, 5 days, from 26.7) was 46.8 10^4 cells/μl and the “rise in total hemoglobin” value (anemic baboon; first baboon, infusion 500-1,000 mg/kg, 5 days, over 3 days) was 1.5 grams/dl. For the same compound, the “rise in total hemoglobin” value (anemic baboon; second baboon, 500-700 mg/kg, 5 days) was 1.4 grams, the “Red blood cell counts” value (anemic baboon; second baboon, 500-700 mg/kg, 5 days, from 2.3×10^6) was 2.82×10^6 and the Total hemoglobin (anemic baboon; second baboon, 500-700 mg/kg, 5 days, from 4.6) was 6.0 g/dL. For the same compound, the “packed red blood cell volume” value (anemic baboon; second baboon, 500-700 mg/kg, 5 days, from 14.5%) was 20.2%, the “White blood cell counts (maximum)” value (anemic baboon; second baboon, 500-700 mg/kg, 5 days, from 8,700) was 14,300 and the “platelet counts (high)” value (anemic baboon; second baboon, 500-700 mg/kg, 5 days, from 328,000) was 486,000. For the same compound, the “Total fetal globin synthesis” value (anemic baboon; second baboon, 500-700 mg/kg, after 5 days, from 4.0%) was 10.8%, the adverse effects (anemic baboon; third baboon, same dose, 5 days) was “No adverse affects were observed” and the “Fetal globin protein synthesis” value (anemic baboon; third baboon, same dose, 5 days, from 0%) was 6.2 % of non-alpha globin. For the same compound, the “fetal hemoglobin producing reticulocytes” value (anemic baboon; third baboon, same dose, after 5 days (FIG. 8), from 0%) was 10%.
